Experimental findings from ChEMBL document CHEMBL1201862, “PubChem BioAssay data set” (2004) are described below.

A short description of assay [1]: nonselective StAR promoter luciferase inhibitors – cell-based, luminescence, luciferase reporter, counter-screen for LRH-1 inverse agonist project, dose response (AID 651969). Type of assay: functional. (In general: A reporter such as luciferase makes a cellular process visible.)
Assay [2] deals with Steroidogenic factor 1 (Homo sapiens, UniProt Q13285). Put plainly: Counterscreen for inverse agonists of the liver receptor homolog-1 (LRH-1; NR5A2): Luminescence-based cell-based high throughput dose response assay to identify inverse agonists of the Steroidogenic Factor 1 Nuclear Receptor (SF1; NR5A1). Type of assay: functional. On the technique in general: The purpose of a counterscreen is to sort out artefacts and off-target activity.
Chain of Steroidogenic factor 1 (Q13285 whole entry): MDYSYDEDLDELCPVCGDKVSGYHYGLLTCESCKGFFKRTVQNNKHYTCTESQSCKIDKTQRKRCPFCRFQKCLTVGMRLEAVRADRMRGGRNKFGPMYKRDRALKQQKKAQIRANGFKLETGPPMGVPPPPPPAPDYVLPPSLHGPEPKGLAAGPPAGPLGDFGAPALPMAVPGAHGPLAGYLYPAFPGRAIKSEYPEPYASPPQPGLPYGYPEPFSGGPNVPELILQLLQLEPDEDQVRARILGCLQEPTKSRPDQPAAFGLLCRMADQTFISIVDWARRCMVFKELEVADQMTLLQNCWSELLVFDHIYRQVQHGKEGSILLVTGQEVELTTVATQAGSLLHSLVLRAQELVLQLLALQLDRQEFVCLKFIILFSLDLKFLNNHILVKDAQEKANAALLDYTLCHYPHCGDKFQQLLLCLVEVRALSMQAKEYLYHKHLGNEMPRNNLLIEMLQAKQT

Assay [3] concerns the target Nuclear receptor subfamily 5 group A member 2 (Homo sapiens, UniProt O00482). Type of assay: functional, cell-based.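 Note: HEK293T cells transfected with LRH-1 and a StAR promoter luciferase reporter; potency for inhibitors that lower LRH-1 driven reporter light.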
In assay [4] the target is T1, High affinity choline transporter 1 (Homo sapiens, UniProt Q9GZV3).
T1 sequence (Q9GZV3 whole entry): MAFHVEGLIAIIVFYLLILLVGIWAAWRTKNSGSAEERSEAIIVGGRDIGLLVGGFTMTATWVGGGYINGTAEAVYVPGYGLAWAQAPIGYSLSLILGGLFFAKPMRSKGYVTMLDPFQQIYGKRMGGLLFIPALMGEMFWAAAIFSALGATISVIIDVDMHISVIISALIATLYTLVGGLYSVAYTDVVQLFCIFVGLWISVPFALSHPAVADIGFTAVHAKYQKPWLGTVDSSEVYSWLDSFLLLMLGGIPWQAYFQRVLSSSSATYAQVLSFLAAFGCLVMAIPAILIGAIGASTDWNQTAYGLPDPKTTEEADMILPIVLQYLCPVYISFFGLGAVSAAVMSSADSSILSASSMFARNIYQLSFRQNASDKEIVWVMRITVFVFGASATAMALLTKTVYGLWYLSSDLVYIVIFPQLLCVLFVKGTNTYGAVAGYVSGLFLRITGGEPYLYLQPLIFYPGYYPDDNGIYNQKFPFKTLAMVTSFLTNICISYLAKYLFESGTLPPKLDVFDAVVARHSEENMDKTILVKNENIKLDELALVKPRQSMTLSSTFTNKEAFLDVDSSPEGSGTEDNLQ
Put plainly: human choline transporter blockers, potency – cell-based, 10-point CRC, membrane potential dye, dose response (AID 588401).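 Note: membrane potential dye fluorescence of choline-evoked depolarization via CHT.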 Type of assay: functional.

In assay [5] the target is T1, High affinity choline transporter 1. Description: human choline transporter blockers, potency – cell-based, 5-point CRC, membrane potential dye, dose response (AID 504840). Type of assay: functional.
Assay [6] has as its target T2, Probable nicotinate-nucleotide adenylyltransferase (Staphylococcus aureus (strain N315), UniProt P65502). It counts as functional, Staphylococcus aureus subsp. aureus N315. To be noted: read-out: IC50_Mean.
For assay [7], the target named is T2, Probable nicotinate-nucleotide adenylyltransferase. It counts as functional, Staphylococcus aureus subsp. aureus N315.
In assay [8] the test system is Streptococcus sp. 'group A'. Put plainly: Streptococcus pyogenes SK(-)GAS viability under kanamycin – luminescence, BacTiterGlo, confirmation, counter-screen for streptokinase expression inhibitor project, dose response (AID 1900). Type of assay: functional, organism-based.
The test system of assay [9] is Streptococcus. Description: GAS UMAA2166 growth inhibition – luminescence, BacTiterGlo, counter-screen for streptokinase expression inhibitor project, dose response (AID 1915).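 Note: potency for reduction of bacterial viability or growth.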 It counts as functional, organism-based.
Assay [10] has as its target Melanocortin receptor 4 (Homo sapiens, UniProt P32245). Type of assay: functional, cell-based.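 Note: Cell-based assay with luminescence read-out, confirmatory dose-response testing for agonist activity of biased ligands at MC4R; human U2OS cells with tagged receptor and beta-arrestin; potency of agonists that increase receptor coupling to beta-arrestin.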
Assay [11] relates to H9c2. Put plainly: cells. Type of assay: functional, cell-based. To be noted: Rattus norvegicus, H9c2, Myocardium.
For assay [12], the target named is T3, Caspase-3 (Homo sapiens, UniProt P42574).
T3 sequence (P42574 whole entry): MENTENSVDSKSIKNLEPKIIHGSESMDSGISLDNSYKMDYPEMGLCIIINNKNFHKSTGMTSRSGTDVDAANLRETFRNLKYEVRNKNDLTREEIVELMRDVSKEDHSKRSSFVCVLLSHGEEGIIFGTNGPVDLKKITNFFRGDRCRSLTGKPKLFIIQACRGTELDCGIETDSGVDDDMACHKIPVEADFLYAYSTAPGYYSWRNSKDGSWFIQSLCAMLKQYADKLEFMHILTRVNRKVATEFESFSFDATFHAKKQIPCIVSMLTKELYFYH
Description: SAR Analysis of small molecule inhibitors of Sentrin-specific proteases (SENPs) using a Caspase-3 Selectivity assay. [Related pubchem assays (depositor defined):AID2540, AID2599, AID434973, AID489001]. It counts as functional.

Assay [13] addresses T4, Sentrin-specific protease 7 (Homo sapiens, UniProt Q9BQF6).
T4 sequence (Q9BQF6 whole entry): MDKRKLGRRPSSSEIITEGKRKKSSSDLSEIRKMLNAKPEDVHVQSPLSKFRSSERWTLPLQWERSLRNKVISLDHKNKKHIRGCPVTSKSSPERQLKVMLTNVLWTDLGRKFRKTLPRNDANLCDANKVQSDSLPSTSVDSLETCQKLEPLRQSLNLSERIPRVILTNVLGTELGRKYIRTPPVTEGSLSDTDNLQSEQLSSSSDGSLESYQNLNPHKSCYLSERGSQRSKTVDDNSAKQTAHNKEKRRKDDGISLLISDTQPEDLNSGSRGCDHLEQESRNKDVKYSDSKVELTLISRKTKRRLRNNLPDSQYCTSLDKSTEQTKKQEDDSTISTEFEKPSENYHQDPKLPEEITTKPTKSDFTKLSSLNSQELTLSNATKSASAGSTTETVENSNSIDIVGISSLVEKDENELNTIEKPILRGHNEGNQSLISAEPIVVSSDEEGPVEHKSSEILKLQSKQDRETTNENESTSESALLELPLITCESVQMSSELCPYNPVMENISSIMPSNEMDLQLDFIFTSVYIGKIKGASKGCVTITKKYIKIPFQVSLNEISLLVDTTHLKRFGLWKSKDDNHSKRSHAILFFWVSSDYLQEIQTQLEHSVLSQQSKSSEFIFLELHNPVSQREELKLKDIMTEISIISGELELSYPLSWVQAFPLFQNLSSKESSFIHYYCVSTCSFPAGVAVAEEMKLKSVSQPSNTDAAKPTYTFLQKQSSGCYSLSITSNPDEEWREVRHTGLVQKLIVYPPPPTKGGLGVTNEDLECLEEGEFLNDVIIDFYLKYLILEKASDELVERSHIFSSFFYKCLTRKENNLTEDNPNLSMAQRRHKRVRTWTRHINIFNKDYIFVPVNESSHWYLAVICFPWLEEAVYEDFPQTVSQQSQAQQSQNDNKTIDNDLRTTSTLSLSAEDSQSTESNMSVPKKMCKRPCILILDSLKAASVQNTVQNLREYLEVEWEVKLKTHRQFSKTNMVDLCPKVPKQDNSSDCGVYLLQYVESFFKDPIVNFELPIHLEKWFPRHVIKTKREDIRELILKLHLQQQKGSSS
Put plainly: inhibition of human SENP7 cleavage activity – biochemical, luminescence, SAR follow-up (AID 504497). It counts as functional.

Assay [14] has as its target T5, Sentrin-specific protease 6 (Homo sapiens, UniProt Q9GZR1).
T5 sequence (Q9GZR1 whole entry): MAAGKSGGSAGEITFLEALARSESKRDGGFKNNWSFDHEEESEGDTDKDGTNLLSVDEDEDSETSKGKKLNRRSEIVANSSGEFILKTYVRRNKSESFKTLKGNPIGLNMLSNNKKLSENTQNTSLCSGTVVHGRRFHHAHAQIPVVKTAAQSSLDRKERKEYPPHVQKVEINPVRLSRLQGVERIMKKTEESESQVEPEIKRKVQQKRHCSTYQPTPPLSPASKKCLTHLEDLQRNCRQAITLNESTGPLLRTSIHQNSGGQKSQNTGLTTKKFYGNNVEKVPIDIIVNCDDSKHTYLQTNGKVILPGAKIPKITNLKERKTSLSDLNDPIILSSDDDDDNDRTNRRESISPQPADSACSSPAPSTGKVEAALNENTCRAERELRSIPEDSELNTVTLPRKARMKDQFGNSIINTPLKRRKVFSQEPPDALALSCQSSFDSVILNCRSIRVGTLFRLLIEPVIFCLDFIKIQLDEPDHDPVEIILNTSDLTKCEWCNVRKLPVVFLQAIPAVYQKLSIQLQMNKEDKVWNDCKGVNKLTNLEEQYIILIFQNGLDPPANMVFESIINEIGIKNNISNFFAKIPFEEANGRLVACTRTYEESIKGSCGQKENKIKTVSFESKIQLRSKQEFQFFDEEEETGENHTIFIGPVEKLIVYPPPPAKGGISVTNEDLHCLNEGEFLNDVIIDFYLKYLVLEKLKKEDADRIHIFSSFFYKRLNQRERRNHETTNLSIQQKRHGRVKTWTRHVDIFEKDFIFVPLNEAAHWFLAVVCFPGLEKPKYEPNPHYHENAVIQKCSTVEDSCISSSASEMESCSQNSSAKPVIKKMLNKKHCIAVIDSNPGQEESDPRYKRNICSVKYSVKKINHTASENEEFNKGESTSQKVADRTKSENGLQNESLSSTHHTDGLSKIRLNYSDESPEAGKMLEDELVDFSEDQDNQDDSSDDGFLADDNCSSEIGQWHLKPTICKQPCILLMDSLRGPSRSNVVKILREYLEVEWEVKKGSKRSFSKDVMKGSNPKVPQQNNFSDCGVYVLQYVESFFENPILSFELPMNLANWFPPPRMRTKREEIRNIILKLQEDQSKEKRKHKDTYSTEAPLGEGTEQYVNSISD
Description: SAR Analysis of small molecule inhibitors of Sentrin-specific protease 6 (SENP6) using a Luminescent assay. [Related pubchem assays (depositor defined):AID2582, AID2599]. It counts as functional.

In assay [15] the target is T6, Sentrin-specific protease 8 (Homo sapiens, UniProt Q96LD8).
T6 sequence (Q96LD8 whole entry): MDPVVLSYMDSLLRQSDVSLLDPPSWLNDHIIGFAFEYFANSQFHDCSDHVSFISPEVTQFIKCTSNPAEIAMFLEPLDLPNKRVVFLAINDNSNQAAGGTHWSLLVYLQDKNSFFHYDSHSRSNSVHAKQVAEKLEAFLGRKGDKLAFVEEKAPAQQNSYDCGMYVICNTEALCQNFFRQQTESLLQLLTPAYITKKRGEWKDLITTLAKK
Put plainly: inhibition of human SENP8 cleavage activity – biochemical, luminescence, SAR follow-up (AID 504501). It counts as functional.

In assay [16] the target is DNA dC->dU-editing enzyme APOBEC-3A (Homo sapiens, UniProt P31941). Put plainly: SAR analysis of small molecule inhibitors of APOBEC3A DNA Deaminase via a fluorescence-based single-stranded DNA deaminase assay. It counts as functional. To be noted: read-out: IC50_Mean.
Chain of DNA dC->dU-editing enzyme APOBEC-3A (P31941 whole entry): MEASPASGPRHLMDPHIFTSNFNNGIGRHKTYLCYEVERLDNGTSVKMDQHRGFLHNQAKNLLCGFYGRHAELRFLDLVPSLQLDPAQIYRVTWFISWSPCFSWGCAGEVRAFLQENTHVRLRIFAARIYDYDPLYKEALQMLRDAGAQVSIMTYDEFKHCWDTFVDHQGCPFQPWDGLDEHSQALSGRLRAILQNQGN
Assay [17] concerns the target DNA dC->dU-editing enzyme APOBEC-3G (Homo sapiens, UniProt Q9HC16). Put plainly: inhibition of APOBEC3G ssDNA deamination – biochemical, fluorescence, single-stranded DNA substrate, SAR follow-up (AID 602136). Type of assay: functional. To be noted: read-out: IC50_Mean.

Activity calls are given as the source filed them. Some results are limits rather than exact numbers.

Chain of Melanocortin receptor 4 (P32245 whole entry): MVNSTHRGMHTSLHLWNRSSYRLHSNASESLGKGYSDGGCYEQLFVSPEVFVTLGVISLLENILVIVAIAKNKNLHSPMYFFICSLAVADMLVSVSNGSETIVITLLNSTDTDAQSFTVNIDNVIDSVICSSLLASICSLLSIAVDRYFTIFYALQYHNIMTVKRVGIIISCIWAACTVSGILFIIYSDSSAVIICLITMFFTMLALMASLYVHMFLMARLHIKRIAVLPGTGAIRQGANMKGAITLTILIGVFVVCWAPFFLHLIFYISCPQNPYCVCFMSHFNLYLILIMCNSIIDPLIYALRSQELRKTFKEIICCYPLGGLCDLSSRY
T2 sequence (P65502 whole entry): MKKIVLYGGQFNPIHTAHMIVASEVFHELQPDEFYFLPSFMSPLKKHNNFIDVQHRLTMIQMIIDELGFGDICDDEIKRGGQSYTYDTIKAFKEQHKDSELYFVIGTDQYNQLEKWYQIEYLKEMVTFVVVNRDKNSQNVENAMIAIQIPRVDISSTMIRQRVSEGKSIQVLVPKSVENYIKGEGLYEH
Chain of DNA dC->dU-editing enzyme APOBEC-3G (Q9HC16 whole entry): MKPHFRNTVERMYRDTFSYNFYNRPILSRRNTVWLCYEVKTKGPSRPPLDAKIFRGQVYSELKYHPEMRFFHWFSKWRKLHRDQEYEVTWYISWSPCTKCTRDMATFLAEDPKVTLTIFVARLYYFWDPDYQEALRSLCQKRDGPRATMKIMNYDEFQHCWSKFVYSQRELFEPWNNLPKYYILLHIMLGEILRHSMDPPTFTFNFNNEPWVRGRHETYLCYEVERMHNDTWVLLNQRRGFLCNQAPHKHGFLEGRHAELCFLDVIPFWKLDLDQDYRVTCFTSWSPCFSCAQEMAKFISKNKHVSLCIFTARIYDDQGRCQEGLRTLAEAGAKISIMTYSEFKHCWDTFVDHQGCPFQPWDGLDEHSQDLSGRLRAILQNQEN
Chain of Nuclear receptor subfamily 5 group A member 2 (O00482 whole entry): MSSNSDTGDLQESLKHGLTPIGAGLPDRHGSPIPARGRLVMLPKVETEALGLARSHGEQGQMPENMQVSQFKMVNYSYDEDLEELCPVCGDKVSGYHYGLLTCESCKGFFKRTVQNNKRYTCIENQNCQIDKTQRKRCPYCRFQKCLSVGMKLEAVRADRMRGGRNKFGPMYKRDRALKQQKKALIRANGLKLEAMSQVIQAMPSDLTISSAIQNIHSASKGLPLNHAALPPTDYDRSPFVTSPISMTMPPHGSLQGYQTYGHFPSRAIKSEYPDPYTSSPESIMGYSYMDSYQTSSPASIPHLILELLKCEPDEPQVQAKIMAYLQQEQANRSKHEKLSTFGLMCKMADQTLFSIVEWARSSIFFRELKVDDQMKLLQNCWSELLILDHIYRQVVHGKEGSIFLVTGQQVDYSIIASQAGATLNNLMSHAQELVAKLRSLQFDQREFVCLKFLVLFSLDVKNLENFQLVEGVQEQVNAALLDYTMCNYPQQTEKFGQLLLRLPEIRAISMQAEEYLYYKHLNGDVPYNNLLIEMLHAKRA

Take `CCOC(=O)c1cc2sccc2n1CC(=O)Nc1ccc2c(c1)OCCO2`: the figures for the IC50 in [1], in assay [2] and in [3] were 35.9 µM (inactive), 15.7 µM (inactive) and 35.9 µM (inactive), respectively.
Turning to `COc1ccc(CSc2nc3nc(C)cc(C)n3n2)cc1F`, the IC50 in [4] was 11.2 µM (active); in assay [5] it was 2.4 µM (active).
With `NC(=O)[C@H]1CC2(CC(c3cccc(NC(=O)COc4ccc(Cl)cc4)c3)=NO2)CN1C(=O)CC(c1ccccc1)c1ccccc1` (some centres undefined), the IC50 in assay [6] was 37.7 µM (active); in assay [7], 12.7 µM (active).
As to `COc1ccccc1NS(=O)(=O)c1ccc(C)c(C(=O)NCC(c2ccco2)N2CCCCC2)c1` (centres undefined), the values for the IC50 in assay [4] and in assay [5] were 0.409 µM (active) and 0.778 µM (active), respectively.
As for `Cc1ccc(NC(=S)NC(=O)c2ccc(-c3ccc(Cl)cc3)o2)c(O)c1`, the results for the concentration for a half-maximal effect (EC50) in assay [8], in assay [9] and in [10] were 7.63 µM (active), 9.04 µM (active) and > 89.2 µM (inactive), respectively.
Turning to `CCc1cc(O)nc(SCC(=O)Nc2ccc3c(c2)OCCO3)n1`, the IC50 in assay [1] was 35.9 µM (inactive); in assay [2], 12 µM (inactive); in assay [3] it was 35.9 µM (inactive).
`COc1cc(-c2cc(NC=O)c3ncc(-c4cccc(C(F)(F)F)c4)n3c2)cc(OC)c1OC`: the IC50 in assay [11] was 51.3 µM (inactive). Besides, in assay [10], the EC50 (as a rule, the concentration that produces a half-maximal response) is > 89.2 µM (inactive).
Regarding `Ic1ccccc1-c1nc(/C=C/c2ccccc2)no1`, the IC50 in assay [12] was 18 µM (active); in assay [13], 5 µM (active); in [14], 13 µM (active); in [15] it was 15 µM (active).
Taken in the same sequence, the figures for `N#Cc1c(NC(=O)c2cnn3cc(Br)cnc23)sc2c1CCC2` were > 99 µM (inactive), > 99 µM (inactive), > 99 µM (inactive) and > 99 µM (inactive).
On to `O=C(O)c1ccc(Cl)c2c1C1C=CCC1C(c1ccccc1F)N2` (centres undefined), for which the values for the IC50 in assay [16] and in [17] were 27.4 µM (inactive) and > 99 µM (inactive), respectively.
`CCOc1ccccc1N1C(=O)C(=O)N(CC(=O)c2ccc[nH]2)C1=O`: the IC50 in [16] and in assay [17] was > 99 µM (inactive) throughout.
